Test [1] has as its target 5-hydroxytryptamine receptor 2B (Homo sapiens, UniProt P41595).
The target in test [2] is T1, Glucocorticoid receptor (Homo sapiens, UniProt P04150).
T1 sequence (P04150 whole entry): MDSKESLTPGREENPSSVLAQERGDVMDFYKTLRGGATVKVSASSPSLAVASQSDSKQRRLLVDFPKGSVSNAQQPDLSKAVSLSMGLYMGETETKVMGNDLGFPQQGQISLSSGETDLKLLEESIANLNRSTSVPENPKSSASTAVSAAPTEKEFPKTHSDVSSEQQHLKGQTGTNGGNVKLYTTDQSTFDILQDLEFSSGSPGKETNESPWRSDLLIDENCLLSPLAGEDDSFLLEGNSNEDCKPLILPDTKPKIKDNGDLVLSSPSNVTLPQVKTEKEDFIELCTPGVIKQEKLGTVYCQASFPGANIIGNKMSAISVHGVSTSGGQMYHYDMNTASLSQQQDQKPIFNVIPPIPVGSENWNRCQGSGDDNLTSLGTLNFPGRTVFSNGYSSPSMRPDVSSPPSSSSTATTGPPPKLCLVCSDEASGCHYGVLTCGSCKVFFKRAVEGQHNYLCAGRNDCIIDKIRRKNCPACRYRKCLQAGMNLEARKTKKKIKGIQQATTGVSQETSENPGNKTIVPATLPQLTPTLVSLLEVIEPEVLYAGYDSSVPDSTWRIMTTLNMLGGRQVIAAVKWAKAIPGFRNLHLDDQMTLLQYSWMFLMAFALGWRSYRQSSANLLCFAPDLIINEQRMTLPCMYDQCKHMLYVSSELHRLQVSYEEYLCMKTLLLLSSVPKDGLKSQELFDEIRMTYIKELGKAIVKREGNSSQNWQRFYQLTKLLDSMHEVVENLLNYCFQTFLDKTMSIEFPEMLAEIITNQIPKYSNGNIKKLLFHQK
The format is functional.

Test [3] deals with T2, Peroxisome proliferator-activated receptor gamma (Homo sapiens, UniProt P37231).
T2 sequence (P37231 whole entry): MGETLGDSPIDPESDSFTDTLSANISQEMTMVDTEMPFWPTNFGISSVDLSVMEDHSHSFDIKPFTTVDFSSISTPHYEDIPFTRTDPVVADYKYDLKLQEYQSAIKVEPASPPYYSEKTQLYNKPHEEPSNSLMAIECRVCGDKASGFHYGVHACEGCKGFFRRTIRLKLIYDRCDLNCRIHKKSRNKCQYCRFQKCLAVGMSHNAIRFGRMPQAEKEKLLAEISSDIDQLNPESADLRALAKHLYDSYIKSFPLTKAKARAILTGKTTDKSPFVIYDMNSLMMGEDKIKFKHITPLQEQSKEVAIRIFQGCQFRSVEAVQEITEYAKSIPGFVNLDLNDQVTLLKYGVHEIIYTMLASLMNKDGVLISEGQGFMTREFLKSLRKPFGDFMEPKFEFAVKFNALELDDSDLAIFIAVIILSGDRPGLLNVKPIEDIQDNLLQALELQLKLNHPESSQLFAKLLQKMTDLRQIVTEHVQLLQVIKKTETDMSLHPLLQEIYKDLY
The format is functional.

Another test deals with Substance-P receptor (Homo sapiens, UniProt P25103).
The target of the next test is T3, D(4) dopamine receptor (Homo sapiens, UniProt P21917).
T3 sequence (P21917 whole entry): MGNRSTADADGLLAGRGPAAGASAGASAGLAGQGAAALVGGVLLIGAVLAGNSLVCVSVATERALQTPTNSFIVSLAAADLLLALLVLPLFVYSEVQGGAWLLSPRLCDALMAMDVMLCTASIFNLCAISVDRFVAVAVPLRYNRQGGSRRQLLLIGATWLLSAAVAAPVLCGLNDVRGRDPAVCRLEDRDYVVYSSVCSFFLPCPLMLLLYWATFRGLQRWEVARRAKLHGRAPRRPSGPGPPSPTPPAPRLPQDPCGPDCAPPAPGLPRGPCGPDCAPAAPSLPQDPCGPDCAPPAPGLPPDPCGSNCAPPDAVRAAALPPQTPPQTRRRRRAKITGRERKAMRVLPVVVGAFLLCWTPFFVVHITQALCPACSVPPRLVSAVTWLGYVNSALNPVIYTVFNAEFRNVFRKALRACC

The target in the next test is T4, Estrogen receptor (Homo sapiens, UniProt P03372).
T4 sequence (P03372 whole entry): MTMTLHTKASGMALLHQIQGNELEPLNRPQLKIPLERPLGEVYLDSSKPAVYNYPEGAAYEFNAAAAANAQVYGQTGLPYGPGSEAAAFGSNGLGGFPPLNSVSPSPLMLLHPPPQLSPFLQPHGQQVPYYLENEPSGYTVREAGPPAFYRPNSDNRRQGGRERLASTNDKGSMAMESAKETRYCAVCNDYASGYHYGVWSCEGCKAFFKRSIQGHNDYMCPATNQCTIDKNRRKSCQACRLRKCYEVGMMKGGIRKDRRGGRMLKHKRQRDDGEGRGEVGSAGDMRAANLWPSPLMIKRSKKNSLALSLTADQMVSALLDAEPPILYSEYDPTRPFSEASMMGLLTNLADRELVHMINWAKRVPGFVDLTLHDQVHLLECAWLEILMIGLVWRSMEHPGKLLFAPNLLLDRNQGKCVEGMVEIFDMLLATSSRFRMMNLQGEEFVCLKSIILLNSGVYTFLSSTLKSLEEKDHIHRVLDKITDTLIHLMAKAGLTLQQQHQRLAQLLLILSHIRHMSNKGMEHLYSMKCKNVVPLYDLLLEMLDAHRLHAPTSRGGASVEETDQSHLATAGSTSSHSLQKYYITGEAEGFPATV
The format is functional.

Test [4] concerns the target T1, Glucocorticoid receptor. The format is functional. The source holds these as a separate data set.
For test [5], the target named is Sodium channel protein type 5 subunit alpha (Homo sapiens, UniProt Q14524). Format: functional, cell-based.
For another test, the target named is D(1A) dopamine receptor (Homo sapiens, UniProt P21728).
For test [6], the target named is Receptor tyrosine-protein kinase erbB-2 (Homo sapiens, UniProt P04626). The format is functional.
Test [7] concerns the target Epidermal growth factor receptor (Homo sapiens, UniProt P00533). Format: functional.

The values below come from ChEMBL document CHEMBL5291721, “A preclinical secondary pharmacology resource illuminates target-adverse drug reaction associations of marketed drugs” (Nat Commun, 2023).

Where only a bound is given, the exact number is not on record here.
Further: assay procedure not described here.

Sequence of Epidermal growth factor receptor (P00533 whole entry): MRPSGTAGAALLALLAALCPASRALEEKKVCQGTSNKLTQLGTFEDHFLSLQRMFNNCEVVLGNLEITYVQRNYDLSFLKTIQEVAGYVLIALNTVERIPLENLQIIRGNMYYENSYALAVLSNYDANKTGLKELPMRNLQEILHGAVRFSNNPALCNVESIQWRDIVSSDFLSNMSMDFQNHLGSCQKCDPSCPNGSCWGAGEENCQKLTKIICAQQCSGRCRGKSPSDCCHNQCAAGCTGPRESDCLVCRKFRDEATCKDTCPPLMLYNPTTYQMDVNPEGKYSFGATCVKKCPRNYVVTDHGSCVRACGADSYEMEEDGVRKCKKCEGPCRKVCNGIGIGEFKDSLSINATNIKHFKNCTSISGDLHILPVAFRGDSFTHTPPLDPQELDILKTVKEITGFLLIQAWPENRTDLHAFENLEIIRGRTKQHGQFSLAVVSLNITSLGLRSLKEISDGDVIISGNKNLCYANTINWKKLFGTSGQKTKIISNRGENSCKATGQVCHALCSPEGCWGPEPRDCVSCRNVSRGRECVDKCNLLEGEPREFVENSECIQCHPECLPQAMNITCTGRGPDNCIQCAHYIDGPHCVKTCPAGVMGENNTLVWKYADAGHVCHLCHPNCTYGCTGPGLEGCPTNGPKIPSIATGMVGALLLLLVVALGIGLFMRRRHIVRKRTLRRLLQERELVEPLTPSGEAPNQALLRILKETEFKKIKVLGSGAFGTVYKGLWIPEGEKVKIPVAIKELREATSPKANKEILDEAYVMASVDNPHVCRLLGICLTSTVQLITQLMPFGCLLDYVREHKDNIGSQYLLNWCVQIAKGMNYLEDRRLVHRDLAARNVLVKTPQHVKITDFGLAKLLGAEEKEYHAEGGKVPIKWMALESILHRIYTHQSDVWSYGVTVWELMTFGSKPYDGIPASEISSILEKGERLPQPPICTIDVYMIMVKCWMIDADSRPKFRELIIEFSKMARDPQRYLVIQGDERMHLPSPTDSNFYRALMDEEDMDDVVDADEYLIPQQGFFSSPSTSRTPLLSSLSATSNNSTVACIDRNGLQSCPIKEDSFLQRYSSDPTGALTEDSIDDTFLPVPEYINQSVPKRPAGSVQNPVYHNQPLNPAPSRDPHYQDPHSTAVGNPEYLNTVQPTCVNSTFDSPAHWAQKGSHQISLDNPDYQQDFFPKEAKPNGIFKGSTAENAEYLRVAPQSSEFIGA
Sequence of Substance-P receptor (P25103 whole entry): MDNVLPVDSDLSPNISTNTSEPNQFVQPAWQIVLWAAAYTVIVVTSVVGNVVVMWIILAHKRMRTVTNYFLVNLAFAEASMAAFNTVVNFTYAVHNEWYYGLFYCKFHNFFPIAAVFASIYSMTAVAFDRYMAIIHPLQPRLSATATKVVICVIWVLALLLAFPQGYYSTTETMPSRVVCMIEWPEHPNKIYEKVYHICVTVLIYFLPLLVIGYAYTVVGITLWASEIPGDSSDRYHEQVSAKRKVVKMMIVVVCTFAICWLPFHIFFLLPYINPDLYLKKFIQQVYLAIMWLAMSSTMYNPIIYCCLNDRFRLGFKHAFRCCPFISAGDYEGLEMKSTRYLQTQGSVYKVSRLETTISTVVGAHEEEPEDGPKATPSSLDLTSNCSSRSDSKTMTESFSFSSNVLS
Sequence of D(1A) dopamine receptor (P21728 whole entry): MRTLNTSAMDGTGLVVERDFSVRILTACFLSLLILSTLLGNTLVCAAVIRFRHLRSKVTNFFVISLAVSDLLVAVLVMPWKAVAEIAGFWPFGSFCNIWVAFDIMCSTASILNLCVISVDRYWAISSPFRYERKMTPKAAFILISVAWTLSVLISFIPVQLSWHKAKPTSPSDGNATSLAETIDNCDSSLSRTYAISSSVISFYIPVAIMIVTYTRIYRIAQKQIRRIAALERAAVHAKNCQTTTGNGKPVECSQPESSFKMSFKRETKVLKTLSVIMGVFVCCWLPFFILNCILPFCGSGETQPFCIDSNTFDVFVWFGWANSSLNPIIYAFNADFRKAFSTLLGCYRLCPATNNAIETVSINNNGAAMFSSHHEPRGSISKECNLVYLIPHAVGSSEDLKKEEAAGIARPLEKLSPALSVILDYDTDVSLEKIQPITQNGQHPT
Sequence of Sodium channel protein type 5 subunit alpha (Q14524 whole entry): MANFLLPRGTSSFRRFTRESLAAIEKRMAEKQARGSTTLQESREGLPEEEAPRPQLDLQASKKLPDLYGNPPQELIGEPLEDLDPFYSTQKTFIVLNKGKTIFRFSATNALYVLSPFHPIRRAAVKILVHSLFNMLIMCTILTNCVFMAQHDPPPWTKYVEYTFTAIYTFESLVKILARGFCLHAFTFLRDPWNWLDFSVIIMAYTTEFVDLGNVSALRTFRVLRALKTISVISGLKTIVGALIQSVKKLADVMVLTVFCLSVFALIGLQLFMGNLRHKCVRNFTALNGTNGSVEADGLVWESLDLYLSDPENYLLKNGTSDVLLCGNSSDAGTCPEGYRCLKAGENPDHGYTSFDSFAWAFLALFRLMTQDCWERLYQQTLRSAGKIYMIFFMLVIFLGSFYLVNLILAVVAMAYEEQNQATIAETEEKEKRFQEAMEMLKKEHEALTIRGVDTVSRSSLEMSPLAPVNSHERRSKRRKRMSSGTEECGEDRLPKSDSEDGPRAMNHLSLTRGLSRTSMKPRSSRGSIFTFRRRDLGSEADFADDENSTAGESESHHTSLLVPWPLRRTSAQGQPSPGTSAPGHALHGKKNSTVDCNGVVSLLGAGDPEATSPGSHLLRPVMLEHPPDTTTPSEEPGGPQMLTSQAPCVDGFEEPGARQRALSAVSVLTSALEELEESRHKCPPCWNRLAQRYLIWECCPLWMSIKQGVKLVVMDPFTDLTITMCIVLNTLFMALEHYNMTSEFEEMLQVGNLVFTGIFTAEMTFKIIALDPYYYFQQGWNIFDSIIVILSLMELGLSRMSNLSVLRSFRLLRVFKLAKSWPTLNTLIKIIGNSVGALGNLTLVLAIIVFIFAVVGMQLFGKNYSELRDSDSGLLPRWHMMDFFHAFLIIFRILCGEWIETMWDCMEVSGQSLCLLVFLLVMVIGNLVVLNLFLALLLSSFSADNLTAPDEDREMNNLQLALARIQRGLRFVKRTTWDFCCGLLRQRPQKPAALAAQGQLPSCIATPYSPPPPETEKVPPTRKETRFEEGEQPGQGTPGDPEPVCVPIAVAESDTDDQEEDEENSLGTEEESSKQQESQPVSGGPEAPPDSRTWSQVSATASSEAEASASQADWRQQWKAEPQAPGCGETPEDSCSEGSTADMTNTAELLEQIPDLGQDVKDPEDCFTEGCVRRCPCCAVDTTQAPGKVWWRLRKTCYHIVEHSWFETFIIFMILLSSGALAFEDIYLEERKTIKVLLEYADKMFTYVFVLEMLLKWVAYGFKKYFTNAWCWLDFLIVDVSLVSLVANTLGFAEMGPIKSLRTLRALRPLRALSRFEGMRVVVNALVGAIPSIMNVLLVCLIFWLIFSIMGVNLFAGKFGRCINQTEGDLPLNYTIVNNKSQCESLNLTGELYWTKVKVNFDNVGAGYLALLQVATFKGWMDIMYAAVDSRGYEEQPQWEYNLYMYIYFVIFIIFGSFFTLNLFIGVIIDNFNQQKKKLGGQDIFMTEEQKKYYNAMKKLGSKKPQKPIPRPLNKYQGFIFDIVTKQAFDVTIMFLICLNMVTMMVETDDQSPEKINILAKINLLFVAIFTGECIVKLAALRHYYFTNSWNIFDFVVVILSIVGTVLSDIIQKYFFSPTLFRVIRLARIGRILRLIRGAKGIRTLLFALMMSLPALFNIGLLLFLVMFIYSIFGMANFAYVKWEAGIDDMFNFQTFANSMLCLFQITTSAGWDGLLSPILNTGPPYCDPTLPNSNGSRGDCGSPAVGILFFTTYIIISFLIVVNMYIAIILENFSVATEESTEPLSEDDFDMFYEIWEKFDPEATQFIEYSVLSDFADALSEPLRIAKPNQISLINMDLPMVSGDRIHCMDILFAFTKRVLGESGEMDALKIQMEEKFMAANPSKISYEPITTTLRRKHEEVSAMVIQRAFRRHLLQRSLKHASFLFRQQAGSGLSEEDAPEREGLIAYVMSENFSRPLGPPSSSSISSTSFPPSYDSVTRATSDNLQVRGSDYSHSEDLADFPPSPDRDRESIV
Sequence of 5-hydroxytryptamine receptor 2B (P41595 whole entry): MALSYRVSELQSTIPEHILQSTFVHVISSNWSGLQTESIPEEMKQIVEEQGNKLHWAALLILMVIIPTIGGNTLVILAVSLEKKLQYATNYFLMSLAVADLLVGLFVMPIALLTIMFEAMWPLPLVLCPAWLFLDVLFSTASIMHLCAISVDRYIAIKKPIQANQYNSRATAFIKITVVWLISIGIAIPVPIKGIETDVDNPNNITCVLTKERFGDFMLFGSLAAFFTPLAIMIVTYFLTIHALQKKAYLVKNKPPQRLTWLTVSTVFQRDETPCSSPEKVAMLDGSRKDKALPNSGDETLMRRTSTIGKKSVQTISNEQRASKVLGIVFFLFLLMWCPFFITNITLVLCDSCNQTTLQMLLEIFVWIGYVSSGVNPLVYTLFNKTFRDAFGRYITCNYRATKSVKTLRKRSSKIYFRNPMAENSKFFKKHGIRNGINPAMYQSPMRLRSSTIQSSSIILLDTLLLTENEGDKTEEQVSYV

Regarding `CCOc1nc2cccc(C(=O)O)c2n1Cc1ccc(-c2ccccc2-c2nnn[nH]2)cc1`, the AC50 was greater than 10 µM in [1]; greater than 30 µM at Glucocorticoid receptor [2]; 18 µM in test [3]; greater than 10 µM on Substance-P receptor; greater than 10 µM on D(4) dopamine receptor; greater than 30 µM at Estrogen receptor. Moreover, the figures for the AC50 (on Glucocorticoid receptor [4]; in [5]; at D(1A) dopamine receptor) were greater than 30 µM, greater than 50 µM and greater than 10 µM, respectively.
With `CCCc1nc2c(C)cc(-c3nc4ccccc4n3C)cc2n1Cc1ccc(-c2ccccc2C(=O)O)cc1`, the AC50 was greater than 10 µM in test [1]; greater than 30 µM on Glucocorticoid receptor [2]; 19 µM in test [3]; greater than 10 µM at Substance-P receptor; greater than 10 µM on D(4) dopamine receptor; greater than 30 µM at Estrogen receptor. Further, the results for the AC50 (on Glucocorticoid receptor [4]; in test [5]; on D(1A) dopamine receptor) were greater than 30 µM, 27.3 µM and greater than 10 µM, respectively.
As for `CCOc1cc([C@@H](CS(C)(=O)=O)N2C(=O)c3cccc(NC(C)=O)c3C2=O)ccc1OC`, the AC50 (in [6]; on Glucocorticoid receptor [2]; in test [3]; on Estrogen receptor; in test [7]; at Glucocorticoid receptor [4]) was greater than 30 µM in each case. In [5], this compound registered an AC50 greater than 50 µM.
For the compound `Cc1nnc(SCC2=C(C(=O)O)N3C(=O)[C@@H](NC(=O)Cn4cnnn4)[C@H]3SC2)s1` [CEFAZOLIN], the AC50 (in test [6]; in [3]; on Estrogen receptor; in test [7]) was greater than 300 µM in each case.
`CC(C)(O/N=C(\C(=O)N[C@@H]1C(=O)N2C(C(=O)[O-])=C(C[n+]3ccccc3)CS[C@H]12)c1csc(N)n1)C(=O)O` [CEFTAZIDIME]: the AC50 was greater than 300 µM in test [6]; greater than 300 µM at Glucocorticoid receptor [2]; greater than 300 µM on Estrogen receptor; greater than 3 µM in test [7]; greater than 300 µM at Glucocorticoid receptor [4].
As for `Clc1ccc(Cn2c(CN3CCCC3)nc3ccccc32)cc1` [CLEMIZOLE], the AC50 (in test [6]; on Glucocorticoid receptor [2]; in test [3]; in test [7]; on Glucocorticoid receptor [4]) was greater than 30 µM each time.
Consider `CC(C)Cc1ccc([C@H](C)C(=O)O)cc1` [DEXIBUPROFEN], for which the AC50 at Glucocorticoid receptor [2], at Estrogen receptor and at Glucocorticoid receptor [4] was greater than 30 µM throughout.
On to `Cc1onc(-c2c(F)cccc2Cl)c1C(=O)N[C@@H]1C(=O)N2[C@@H]1SC(C)(C)[C@@H]2C(=O)O` [FLOXACILLIN], for which the AC50 (in [6]; at Glucocorticoid receptor [2]; in test [3]; in test [7]; on Glucocorticoid receptor [4]) was greater than 30 µM each time.
Turning to `COc1cc(C(C)=O)ccc1OCCCN1CCC(c2noc3cc(F)ccc23)CC1` [ILOPERIDONE], the AC50 is greater than 30 µM at Glucocorticoid receptor [2]; greater than 30 µM in test [3]; greater than 10 µM at Substance-P receptor; 0.0209 µM on D(4) dopamine receptor; greater than 30 µM on Estrogen receptor; greater than 30 µM at Glucocorticoid receptor [4]. Moreover, the concentration at half-maximal activity (AC50) on D(1A) dopamine receptor was 0.0684 µM.
Turning to `S=P(N1CC1)(N1CC1)N1CC1` [THIOTEPA], the AC50 (in [6]; on Glucocorticoid receptor [2]; in test [3]; at Estrogen receptor; in [7]; on Glucocorticoid receptor [4]) was greater than 30 µM each time.
Consider `C[C@]12C=CC(=O)C=C1CC[C@H]1[C@@H]3C[C@@H](O)[C@](O)(C(=O)CO)[C@@]3(C)C[C@H](O)[C@@]12F` [TRIAMCINOLONE], for which the AC50 on Glucocorticoid receptor [2] was greater than 30 µM; at Glucocorticoid receptor [4], 1.2 µM.
On the same counts, the results for `COc1cc(C(=O)NS(=O)(=O)c2ccccc2C)ccc1Cc1cn(C)c2ccc(NC(=O)OC3CCCC3)cc12` [ZAFIRLUKAST] are greater than 30 µM and greater than 30 µM.

What is called AC50 is the midpoint of the concentration-response curve, whichever way the signal moves.
